Data: PubChem BioAssay (NCI)
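Exposure lasted 48 hours, with cells grown in 96-well plates and compounds tested at five concentrations. The concentration for 50% growth inhibition is given as GI50. TGI: total growth inhibition.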

Experiments:
Experiment in all cases: NCI-60 cell line screen, 48 h
RXF 393 renal = system: RXF 393 renal
SK-MEL-28 melanoma = system: SK-MEL-28 melanoma
HOP-62 NSCLC = system: HOP-62 NSCLC
MALME-3M melanoma = system: MALME-3M melanoma
SF-539 CNS = system: SF-539 CNS
NCI-H460 lung = system: NCI-H460 lung
A549 NSCLC = system: A549 NSCLC
NCI-H226 lung = system: NCI-H226 lung
SK-OV-3 ovarian = system: SK-OV-3 ovarian
HL-60(TB) leukemia = system: HL-60(TB) leukemia

SMILES | TGI (RXF 393 renal) | TGI (SK-MEL-28 melanoma) | TGI (HOP-62 NSCLC) | TGI (MALME-3M melanoma) | TGI (SF-539 CNS) | TGI (NCI-H460 lung) | TGI (A549 NSCLC) | TGI (NCI-H226 lung) | TGI (SK-OV-3 ovarian) | TGI (HL-60(TB) leukemia) | GI50 (RXF 393 renal) | GI50 (SK-MEL-28 melanoma) | GI50 (HOP-62 NSCLC) | GI50 (MALME-3M melanoma) | GI50 (SF-539 CNS) | GI50 (NCI-H460 lung) | GI50 (A549 NSCLC) | GI50 (NCI-H226 lung) | GI50 (SK-OV-3 ovarian) | GI50 (HL-60(TB) leukemia)
NC(CSC1(c2ccc(Cl)cc2)c2ccccc2-c2ccccc21)C(=O)O (stereo not given) | > 100 µM | > 100 µM | 49.6 µM | 38.5 µM | 48.5 µM | 39.5 µM | > 100 µM | 67.5 µM | > 100 µM | > 100 µM |  |  |  |  |  |  |  |  |  | 
Cc1cc2nc3c4cc([N+](=O)[O-])ccc4n(CCN(C)C)c3nc2cc1C | 2.21 µM | 2.48 µM | > 40 µM | 1.87 µM | 2.56 µM | 1.75 µM | 3.67 µM | 5.81 µM | > 43.4 µM | 3.97 µM | 0.65 µM | 0.967 µM | 0.579 µM | 0.527 µM | 0.469 µM | 0.352 µM | 0.397 µM | 0.966 µM | 0.905 µM | 0.622 µM
[Au+].c1c[n-]cn1.c1ccc([PH+](c2ccccc2)c2ccccc2)cc1 | 2.66 µM | 6.87 µM | 43 µM | 4.25 µM | 10.8 µM | 59.9 µM | 42.6 µM | 51.3 µM | 30.4 µM | 4.81 µM | 1.3 µM | 2.29 µM | 6.24 µM | 1.96 µM | 4.38 µM | 15.3 µM | 11.7 µM | 12.8 µM | 16.8 µM | 1.66 µM
Cc1ccc(S(=O)(=O)OC2CSSCC2OS(=O)(=O)c2ccc(C)cc2)cc1 (stereo not given) | 37.7 µM | 30.3 µM | 43.2 µM | 34.3 µM | 22.8 µM | 31.8 µM | 31.9 µM | 33.6 µM | 38.4 µM | 22 µM |  |  |  |  |  |  |  |  |  | 
C=C1CCC2(C(C)=O)COC1(C)O2 (stereo not given) | > 10 µM | > 100 µM | > 100 µM | > 100 µM | > 100 µM | > 100 µM | > 100 µM | > 100 µM | > 100 µM | > 100 µM |  |  |  |  |  |  |  |  |  | 
COc1c(OC)c(OC)c(-c2cc(=O)c3c(OC)c(OC)c(OC)c(OC)c3o2)c(OC)c1OC | 81.2 µM | > 100 µM | > 100 µM | > 100 µM | > 100 µM | > 100 µM | > 100 µM | > 100 µM | > 100 µM | > 100 µM |  |  |  |  |  |  |  |  |  | 
O=C(CC1(O)C(=O)Nc2ccc([N+](=O)[O-])cc21)c1ccc(Br)cc1 (stereo not given) | 71.1 µM | > 100 µM | > 100 µM | > 100 µM | > 100 µM | > 100 µM | > 100 µM | > 100 µM | > 100 µM | 45.7 µM |  |  |  |  |  |  |  |  |  | 
O=[P+](O)c1cccnc1 | > 100 µM | > 100 µM | > 100 µM | > 100 µM | > 100 µM | > 100 µM | > 100 µM | > 100 µM | > 100 µM | > 100 µM |  |  |  |  |  |  |  |  |  | 
COc1cc2oc(-c3ccc(O)cc3)cc(=O)c2c(OC)c1O | > 100 µM | > 100 µM | > 100 µM | > 100 µM | > 100 µM | > 100 µM | > 100 µM | > 100 µM | > 100 µM | > 100 µM |  |  |  |  |  |  |  |  |  | 
Cc1cc2c(C)nn(Cc3ccccc3Cl)c2c(C#N)c1C | > 100 µM | > 100 µM | > 100 µM | > 100 µM | > 100 µM | > 100 µM | > 100 µM | > 100 µM | > 100 µM | > 100 µM |  |  |  |  |  |  |  |  |  | 
CN(CCCCN)c1ccc2c(=O)[nH][nH]c(=O)c2c1 | > 100 µM | > 100 µM | > 100 µM | > 100 µM | > 100 µM | > 100 µM | > 100 µM | > 100 µM | > 100 µM | > 100 µM |  |  |  |  |  |  |  |  |  | 
Cc1nc(-n2nc(-c3ccccc3)cc2-c2ccccc2)sc1C(/C=C/c1ccc([N+](=O)[O-])cc1)=N/NC(N)=S | > 100 µM | > 100 µM | 65.7 µM | > 100 µM | > 100 µM | > 100 µM | > 100 µM | > 100 µM | > 100 µM | 25.6 µM |  |  |  |  |  |  |  |  |  | 
N/C(=N/N=C/c1cccc(F)c1)NO | 78.4 µM | > 100 µM | 82.1 µM | > 100 µM | 70 µM | > 100 µM | 98.7 µM | > 100 µM | > 100 µM | 93.5 µM |  |  |  |  |  |  |  |  |  | 
Oc1[nH]c2ccccc2c1/C=c1/ccc2c(c1)N=C(c1cc(F)cc(F)c1)N=2 | 25 µM | 20.2 µM | 25.2 µM | 28.3 µM | 31.4 µM | 22.8 µM | 23.7 µM | 34.5 µM | 29 µM | 40.5 µM | 8.2 µM | 7.24 µM | 10.4 µM | 10.1 µM | 13.6 µM | 7.04 µM | 4.65 µM | 11.4 µM | 14.2 µM | 12.6 µM
O=Cc1cn(S(=O)(=O)c2ccccc2)c2ccccc12 | > 100 µM | > 100 µM | > 100 µM | > 100 µM | > 100 µM | > 100 µM | > 100 µM | > 100 µM | > 100 µM | 49.2 µM |  |  |  |  |  |  |  |  |  | 
CC/C(=C(/CC)c1ccc(O)cc1)c1ccc(O)cc1 | 21.8 µM | 19.9 µM | 20.9 µM | 25.1 µM | 19.7 µM | 15.2 µM | 20.5 µM | 36 µM | 13 µM | > 100 µM | 6.72 µM | 6.96 µM | 4.89 µM | 5.54 µM | 5.84 µM | 4.05 µM | 4.59 µM | 14.6 µM | 3.63 µM | 4.07 µM
CC(=O)Nc1ccc(Cc2ccc3[nH]c(=O)cc(C)c3c2)cc1 | > 100 µM | > 100 µM | > 100 µM | > 100 µM | > 100 µM | > 100 µM | > 100 µM | > 100 µM | > 100 µM | > 100 µM |  |  |  |  |  |  |  |  |  | 
COc1ccc(Nc2ncccc2C(=O)NCc2cn(Cc3cccc(Oc4ccccc4)c3)nn2)c(OC)c1 | > 74.2 µM | > 100 µM | > 100 µM | > 100 µM | 19.2 µM | > 100 µM | > 100 µM | > 26.7 µM | > 30.1 µM | > 22.7 µM | 1.91 µM | 5.27 µM | 5.58 µM | 6.21 µM | 2.43 µM | 3.19 µM | 3.7 µM | 2.72 µM | 2.13 µM | 2.55 µM
